This note sets out measurements from ChEMBL document CHEMBL5696442, “Discovery of type II inhibitors of TGFβ-activated kinase 1 (TAK1) and mitogen-activated protein kinase kinase kinase kinase 2 (MAP4K2)” (J Med Chem, 2015).

The source made the active and inactive calls. The rule behind the calls is not given here.

The target in test [1] is T1, Acylglycerol kinase, mitochondrial (Homo sapiens) (UniProt Q53H12).
T1 sequence (whole entry): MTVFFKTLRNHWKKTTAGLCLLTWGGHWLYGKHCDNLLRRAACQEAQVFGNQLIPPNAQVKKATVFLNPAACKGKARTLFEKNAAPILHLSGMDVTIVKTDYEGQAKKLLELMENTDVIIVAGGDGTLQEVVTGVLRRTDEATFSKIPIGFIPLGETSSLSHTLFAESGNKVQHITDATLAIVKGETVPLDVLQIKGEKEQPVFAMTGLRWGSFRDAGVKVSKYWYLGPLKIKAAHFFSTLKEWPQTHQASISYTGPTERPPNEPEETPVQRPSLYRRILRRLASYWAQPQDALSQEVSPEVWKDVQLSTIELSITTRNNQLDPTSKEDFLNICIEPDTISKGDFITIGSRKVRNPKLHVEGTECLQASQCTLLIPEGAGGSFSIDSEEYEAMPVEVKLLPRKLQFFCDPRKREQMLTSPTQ
The test can be described thus: Inhibition of AGK ATP labeling site in human A-375 cells at 0.05 uM by KiNativ Profiling analysis relative to control. It is filed as cell-based.

Test [2] has as its target T2, Serine/threonine-protein kinase Chk1 (Homo sapiens) (UniProt O14757).
T2 sequence (whole entry): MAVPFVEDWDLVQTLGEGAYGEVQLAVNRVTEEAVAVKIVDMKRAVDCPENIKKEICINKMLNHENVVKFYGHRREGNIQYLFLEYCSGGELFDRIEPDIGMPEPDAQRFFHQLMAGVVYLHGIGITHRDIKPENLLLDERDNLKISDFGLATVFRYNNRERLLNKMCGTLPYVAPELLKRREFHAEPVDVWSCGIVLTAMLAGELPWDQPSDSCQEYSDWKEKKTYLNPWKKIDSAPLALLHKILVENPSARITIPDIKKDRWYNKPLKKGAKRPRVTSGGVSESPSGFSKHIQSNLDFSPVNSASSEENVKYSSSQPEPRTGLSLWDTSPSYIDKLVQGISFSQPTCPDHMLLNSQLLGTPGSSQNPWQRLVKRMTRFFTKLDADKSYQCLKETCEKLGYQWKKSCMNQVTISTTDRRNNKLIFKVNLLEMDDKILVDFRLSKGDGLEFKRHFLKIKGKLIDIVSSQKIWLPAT
The test can be described thus: Inhibition of CHEK1 (unknown origin) at 1 uM by Ambit Kinomescan binding assay relative to control.

Test [3] concerns the target Serine/threonine-protein kinase SIK2 (Homo sapiens) (UniProt Q9H0K1). The test can be described thus: Inhibition of SIK2 (unknown origin) at 1 uM by Ambit Kinomescan binding assay relative to control.
Test [4] addresses T3, Phosphatidylinositol 5-phosphate 4-kinase type-2 gamma (Homo sapiens) (UniProt Q8TBX8).
T3 sequence (whole entry): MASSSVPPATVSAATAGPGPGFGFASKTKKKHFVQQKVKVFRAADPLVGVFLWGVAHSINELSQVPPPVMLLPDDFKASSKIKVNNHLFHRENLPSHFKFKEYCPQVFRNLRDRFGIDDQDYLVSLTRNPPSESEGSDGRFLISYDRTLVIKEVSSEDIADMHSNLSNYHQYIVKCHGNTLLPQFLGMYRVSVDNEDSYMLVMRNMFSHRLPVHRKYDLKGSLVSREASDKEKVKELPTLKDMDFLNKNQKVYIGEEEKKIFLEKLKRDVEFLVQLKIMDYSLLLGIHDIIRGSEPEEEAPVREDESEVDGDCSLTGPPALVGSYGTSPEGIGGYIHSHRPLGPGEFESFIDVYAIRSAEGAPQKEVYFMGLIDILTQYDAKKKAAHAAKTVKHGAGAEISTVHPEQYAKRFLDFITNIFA
The test can be described thus: Inhibition of PIP4K2C ATP labeling site harbouring VKELPTLK in human A-375 cells at 5 uM by KiNativ Profiling analysis relative to control. It is filed as cell-based.

Test [5] addresses Mitogen-activated protein kinase kinase kinase kinase 3 (Homo sapiens) (UniProt Q8IVH8). As to the kind of experiment: Inhibition of MAP4K3 (unknown origin) at 1 uM by Ambit Kinomescan binding assay relative to control.
The target of test [6] is DNA-PK/Ku70/Ku85 (Homo sapiens) (UniProt P78527+P12956+P13010). The test can be described thus: Inhibition of DNAPK ATP labeling site harbouring KGGSWIQEINVAEKNWYPR in human A-375 cells at 0.5 uM by KiNativ Profiling analysis relative to control. It is filed as cell-based.
Test [7] addresses SRSF protein kinase 2 (Homo sapiens) (UniProt P78362). As to the kind of experiment: Inhibition of SRPK2 (unknown origin) at 10 uM by Ambit Kinomescan binding assay.
Test [8] has as its target RPS6KA1/RPS6KA2/RPS6KA3 (Homo sapiens) (UniProt P51812+Q15349+Q15418). The test can be described thus: Inhibition of RSK1/2/3 Domain 1 K2 labeling site harbouring DLKPENILLDEEGHIK in human Huh-7 cells at 1 uM by KiNativ Profiling analysis relative to control. It is filed as cell-based.
For test [9], the target named is Serine/threonine-protein kinase 26 (Homo sapiens) (UniProt Q9P289). The test can be described thus: Inhibition of MST4 Lys2 labeling site in human Huh-7 cell lysate at 1 uM by KiNativ Profiling analysis relative to control. It is filed as subcellular.
Serine/threonine-protein kinase 26 (Homo sapiens), sequence (Q9P289 2-416 limits assumed): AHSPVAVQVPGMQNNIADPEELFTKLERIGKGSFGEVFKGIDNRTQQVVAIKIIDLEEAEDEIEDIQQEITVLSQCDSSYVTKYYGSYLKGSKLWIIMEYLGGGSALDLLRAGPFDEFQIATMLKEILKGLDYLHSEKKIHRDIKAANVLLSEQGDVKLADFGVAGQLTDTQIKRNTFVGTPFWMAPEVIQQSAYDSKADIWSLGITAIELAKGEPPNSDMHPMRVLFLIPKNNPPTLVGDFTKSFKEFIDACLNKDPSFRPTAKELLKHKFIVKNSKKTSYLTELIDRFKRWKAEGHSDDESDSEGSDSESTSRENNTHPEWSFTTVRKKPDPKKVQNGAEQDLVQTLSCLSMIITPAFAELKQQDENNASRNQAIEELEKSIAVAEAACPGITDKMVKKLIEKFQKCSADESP
Test [10] addresses Mitogen-activated protein kinase kinase kinase 20 (Homo sapiens, UniProt Q9NYL2). The test can be described thus: Inhibition of ZAK Lys1 labeling site in human Huh-7 cells at 1 uM by KiNativ Profiling analysis relative to control. It is filed as cell-based.
Test [11] deals with Serine/threonine-protein kinase Nek7 (Homo sapiens) (UniProt Q8TDX7). As to the kind of experiment: Inhibition of NEK7 Lys2 labeling site harbouring VMHRDIKPANVFITATGVVK in human Huh-7 cells at 1 uM by KiNativ Profiling analysis relative to control. It is filed as cell-based.
Serine/threonine-protein kinase Nek7 (Homo sapiens), sequence (Q8TDX7 whole entry, looked up): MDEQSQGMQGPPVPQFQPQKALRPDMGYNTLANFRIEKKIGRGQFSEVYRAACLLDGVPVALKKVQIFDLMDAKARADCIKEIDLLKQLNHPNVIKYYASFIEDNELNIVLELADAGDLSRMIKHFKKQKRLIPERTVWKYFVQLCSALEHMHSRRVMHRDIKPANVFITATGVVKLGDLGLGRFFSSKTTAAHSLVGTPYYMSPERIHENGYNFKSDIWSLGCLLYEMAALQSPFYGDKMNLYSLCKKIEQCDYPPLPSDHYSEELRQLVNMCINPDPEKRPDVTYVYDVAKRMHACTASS
Test [12] deals with Calcium/calmodulin-dependent protein kinase type II subunit alpha (Homo sapiens) (UniProt Q9UQM7). As to the kind of experiment: Inhibition of CaMK2a Lys2 labeling site in human Huh-7 cells at 1 uM by KiNativ Profiling analysis relative to control. It is filed as cell-based.
Calcium/calmodulin-dependent protein kinase type II subunit alpha (Homo sapiens), sequence (Q9UQM7 whole entry): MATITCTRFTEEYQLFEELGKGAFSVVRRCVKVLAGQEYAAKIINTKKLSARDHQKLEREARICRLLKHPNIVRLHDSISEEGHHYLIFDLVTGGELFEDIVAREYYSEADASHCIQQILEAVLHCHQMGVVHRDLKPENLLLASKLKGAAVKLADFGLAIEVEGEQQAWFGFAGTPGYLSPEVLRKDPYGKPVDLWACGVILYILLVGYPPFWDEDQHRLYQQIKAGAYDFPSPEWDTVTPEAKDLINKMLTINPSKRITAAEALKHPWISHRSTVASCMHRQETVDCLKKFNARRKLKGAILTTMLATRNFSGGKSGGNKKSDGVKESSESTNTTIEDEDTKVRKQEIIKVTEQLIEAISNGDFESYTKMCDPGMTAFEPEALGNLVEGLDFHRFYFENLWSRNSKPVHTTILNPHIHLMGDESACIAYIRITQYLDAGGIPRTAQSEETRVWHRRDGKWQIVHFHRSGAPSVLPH

Mitogen-activated protein kinase kinase kinase 20, sequence (Q9NYL2 2-800 limits assumed): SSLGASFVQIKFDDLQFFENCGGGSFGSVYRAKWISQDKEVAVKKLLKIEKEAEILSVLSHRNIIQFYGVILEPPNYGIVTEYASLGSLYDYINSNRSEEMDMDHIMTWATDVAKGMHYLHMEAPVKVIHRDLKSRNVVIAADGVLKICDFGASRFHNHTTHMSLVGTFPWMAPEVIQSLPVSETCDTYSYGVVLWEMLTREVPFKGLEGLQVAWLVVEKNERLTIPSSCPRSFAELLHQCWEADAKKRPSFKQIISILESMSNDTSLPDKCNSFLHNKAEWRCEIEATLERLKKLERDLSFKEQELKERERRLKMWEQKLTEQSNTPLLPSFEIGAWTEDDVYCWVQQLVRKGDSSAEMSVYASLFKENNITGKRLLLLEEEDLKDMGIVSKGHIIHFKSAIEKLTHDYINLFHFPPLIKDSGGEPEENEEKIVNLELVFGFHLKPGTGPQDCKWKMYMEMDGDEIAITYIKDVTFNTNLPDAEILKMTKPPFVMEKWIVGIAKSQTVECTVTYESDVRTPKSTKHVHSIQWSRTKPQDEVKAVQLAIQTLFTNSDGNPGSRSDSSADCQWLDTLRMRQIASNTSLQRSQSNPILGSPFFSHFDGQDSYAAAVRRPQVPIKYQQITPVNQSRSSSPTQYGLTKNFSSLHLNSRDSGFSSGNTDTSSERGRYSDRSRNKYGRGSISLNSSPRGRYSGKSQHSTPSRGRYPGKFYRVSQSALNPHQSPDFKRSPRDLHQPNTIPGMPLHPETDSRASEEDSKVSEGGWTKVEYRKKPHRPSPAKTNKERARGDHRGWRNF
Mitogen-activated protein kinase kinase kinase kinase 3 (Homo sapiens), sequence (Q8IVH8 whole entry): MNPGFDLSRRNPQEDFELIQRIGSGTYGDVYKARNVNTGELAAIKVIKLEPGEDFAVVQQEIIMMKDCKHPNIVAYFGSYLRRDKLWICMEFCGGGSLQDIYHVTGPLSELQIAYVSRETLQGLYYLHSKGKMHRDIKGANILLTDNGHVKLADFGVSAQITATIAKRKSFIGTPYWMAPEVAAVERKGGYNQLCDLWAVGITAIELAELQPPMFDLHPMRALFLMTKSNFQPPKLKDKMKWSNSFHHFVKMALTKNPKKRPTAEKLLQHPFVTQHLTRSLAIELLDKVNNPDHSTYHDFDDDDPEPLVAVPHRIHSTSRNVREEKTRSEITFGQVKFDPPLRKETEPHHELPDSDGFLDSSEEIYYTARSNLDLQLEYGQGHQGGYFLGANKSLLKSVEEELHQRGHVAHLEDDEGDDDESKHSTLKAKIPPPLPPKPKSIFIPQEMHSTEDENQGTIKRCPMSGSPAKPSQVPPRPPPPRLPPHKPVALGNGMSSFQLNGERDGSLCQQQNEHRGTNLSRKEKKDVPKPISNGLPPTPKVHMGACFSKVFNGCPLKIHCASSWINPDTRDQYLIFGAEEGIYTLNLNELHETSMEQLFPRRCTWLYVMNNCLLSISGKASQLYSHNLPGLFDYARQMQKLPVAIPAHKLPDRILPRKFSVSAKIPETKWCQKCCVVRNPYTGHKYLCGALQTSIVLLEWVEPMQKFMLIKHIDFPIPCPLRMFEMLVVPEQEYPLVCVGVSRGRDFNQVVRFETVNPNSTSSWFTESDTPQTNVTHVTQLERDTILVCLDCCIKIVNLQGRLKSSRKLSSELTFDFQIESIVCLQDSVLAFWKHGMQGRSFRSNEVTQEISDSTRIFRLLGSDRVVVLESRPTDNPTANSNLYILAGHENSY
SRSF protein kinase 2 (Homo sapiens), sequence (P78362 whole entry, looked up): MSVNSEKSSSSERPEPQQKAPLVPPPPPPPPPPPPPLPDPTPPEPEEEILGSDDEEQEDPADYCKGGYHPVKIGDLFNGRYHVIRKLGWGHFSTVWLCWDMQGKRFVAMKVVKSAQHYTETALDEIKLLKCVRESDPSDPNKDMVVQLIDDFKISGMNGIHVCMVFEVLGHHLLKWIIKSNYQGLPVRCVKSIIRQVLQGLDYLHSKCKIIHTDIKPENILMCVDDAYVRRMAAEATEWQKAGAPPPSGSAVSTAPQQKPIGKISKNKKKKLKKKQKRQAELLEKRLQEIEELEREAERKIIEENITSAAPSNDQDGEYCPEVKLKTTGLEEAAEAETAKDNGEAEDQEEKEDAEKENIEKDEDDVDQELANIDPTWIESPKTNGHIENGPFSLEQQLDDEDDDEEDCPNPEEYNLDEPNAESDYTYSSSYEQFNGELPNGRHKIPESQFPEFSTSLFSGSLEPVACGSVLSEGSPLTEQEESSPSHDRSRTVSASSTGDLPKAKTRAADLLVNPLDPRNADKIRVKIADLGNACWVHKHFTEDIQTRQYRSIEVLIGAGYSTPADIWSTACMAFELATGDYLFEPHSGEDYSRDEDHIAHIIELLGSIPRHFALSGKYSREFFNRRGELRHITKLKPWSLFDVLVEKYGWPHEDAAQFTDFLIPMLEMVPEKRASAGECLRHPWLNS
Serine/threonine-protein kinase SIK2 (Homo sapiens), sequence (Q9H0K1 whole entry, looked up): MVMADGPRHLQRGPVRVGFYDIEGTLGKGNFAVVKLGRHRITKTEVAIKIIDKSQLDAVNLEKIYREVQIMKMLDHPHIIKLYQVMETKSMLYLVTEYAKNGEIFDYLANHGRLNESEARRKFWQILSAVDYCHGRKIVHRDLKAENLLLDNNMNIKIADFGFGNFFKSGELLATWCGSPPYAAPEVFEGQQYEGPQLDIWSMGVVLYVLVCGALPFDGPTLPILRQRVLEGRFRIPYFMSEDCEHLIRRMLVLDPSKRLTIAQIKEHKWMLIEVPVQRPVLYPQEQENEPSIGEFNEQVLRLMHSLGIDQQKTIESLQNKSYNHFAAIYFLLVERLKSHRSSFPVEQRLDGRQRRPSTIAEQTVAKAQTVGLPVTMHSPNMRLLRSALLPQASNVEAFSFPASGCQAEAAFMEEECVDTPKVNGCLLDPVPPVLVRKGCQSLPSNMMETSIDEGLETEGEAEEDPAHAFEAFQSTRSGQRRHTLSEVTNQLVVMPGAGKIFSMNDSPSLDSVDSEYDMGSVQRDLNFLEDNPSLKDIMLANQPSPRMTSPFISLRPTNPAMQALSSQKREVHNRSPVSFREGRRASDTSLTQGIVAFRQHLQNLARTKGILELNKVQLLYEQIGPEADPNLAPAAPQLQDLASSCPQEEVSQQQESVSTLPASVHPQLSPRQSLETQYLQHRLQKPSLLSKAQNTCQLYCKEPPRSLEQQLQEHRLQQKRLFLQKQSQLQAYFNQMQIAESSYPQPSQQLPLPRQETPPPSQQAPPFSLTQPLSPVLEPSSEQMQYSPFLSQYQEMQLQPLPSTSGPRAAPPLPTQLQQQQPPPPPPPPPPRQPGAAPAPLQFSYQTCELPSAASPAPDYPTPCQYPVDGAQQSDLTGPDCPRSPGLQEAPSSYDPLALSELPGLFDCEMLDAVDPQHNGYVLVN

By inhibition is commonly meant the change of the read-out against control, counted positive when it falls. Consider `CCN1CCN(Cc2ccc(NC(=O)c3ccc(C)c(/C=C/c4cnc5[nH]ccc5c4OC)c3)cc2C(F)(F)F)CC1`, for which the inhibition in [1] is 16.8%; in [2], 100%; in [3] it was 26%; in test [4], -6%; in [5], 20%.

As for `CCN1CCN(Cc2ccc(NC(=O)c3ccc(C)c(Oc4ccnc5[nH]ccc45)c3)cc2C(F)(F)F)CC1`, the values for the inhibition in test [6] and in [8] were 13.7% and 5%, respectively. Further, the inhibition result in test [7] was “inactive”.

Consider `CNc1cc(Oc2cc(C(=O)Nc3cc(N4CCN(C)CC4)cc(C(F)(F)F)c3)ccc2C)ncn1`, for which the inhibition in test [9] is -0.3%; in test [10], 13.8%; in test [11], 6.9%; in [12], 20.3%.
